Laboratory results published in patent US12490740B2, “Active compound combinations having insecticidal properties” (Bayer Aktiengesellschaft, priority 2019, dated 2025).
Like-named read-outs stand apart in the source and are kept apart here.

Experiments:
Spodoptera frugiperda = Spodoptera frugiperda - spray test (cotton leaves); type: in vivo
Method: (§1) The expected efficacy of a given combination of two compounds is calculated as follows (see Colby, S. R., “Calculating Synergistic and antagonistic Responses of Herbicide Combinations”, Weeds 15, pp. 20-22, 1967): • If • X is the efficacy expressed in % mortality of the untreated control for test compound A at a concentration of m ppm respectively m g/ha, • Y is the efficacy expressed in % mortality of the untreated control for test compound B at a concentration of n ppm respectively n g/ha, • E is the efficacy expressed in % mortality of the untreated control using the mixture of A and B at m and n ppm respectively m and n g/ha, • then is
(§2) If the observed insecticidal efficacy of the combination is higher than the one calculated as “E”, then the combination of the two compounds is more than additive, i.e. there is a synergistic effect.
Spodoptera frugiperda—Spray Test
(§3) • Solvent: 7 parts by weight of dimethylformamide • Emulsifier: alkylaryl polyglycol ether
(§4) To produce a suitable preparation of active compound, 1 part by weight of active compound is mixed with the stated amount of solvent and is diluted with water, containing an emulsifier concentration of 1000 ppm, to the desired concentration. Further test concentrations are prepared by dilution with emulsifier containing water.
Cotton leaves (Gossypium hirsutum) are treated by being sprayed with the preparation of the active compound of the desired concentration and are infested with caterpillars of the fall army worm (Spodoptera frugiperda).
After the specified period of time mortality in % is determined. 100% means all the caterpillars have been killed and 0% means none of the caterpillars have been killed. The mortality values determined thus are recalculated using the Colby-formula (see above).

Phaedon cochleariae = Phaedon cochleariae - spray test (cabbage leaves); type: in vivo
Method: as §1, §2
Phaedon cochleariae—Spray Test
as §3, §4
Cabbage leaves (Brassica oleracea) are treated by being sprayed with the preparation of the active compound of the desired concentration and are infested with mustard beetle larvae (Phaedon cochleariae).
After the specified period of time mortality in % is determined. 100% means all the beetle larvae have been killed and 0% means none of the beetle larvae have been killed. The mortality values determined thus are recalculated using the Colby-formula (see sheet 1).

[1] = Spodoptera frugiperda, 72 h, read-out: Mortality in % after 3 days

CON(C(=O)c1cn(C)nc1C(F)F)C(C)Cc1c(Cl)cc(Cl)cc1Cl (racemic) [Pydiflumetofen, 3-(difluoromethyl)-N-methoxy-1-methyl-N—[(RS)-1-methyl-2-(2,4,6-trichlorophenyl)ethyl]-1H-pyrazole-4-carboxamide]
mortality at 1.5 ppm (Spodoptera frugiperda; Spodoptera frugiperda, 48 h, read-out: Mortality in % after 2 days): 0%
mortality at 1.5 ppm (Spodoptera frugiperda; [1]): 0%
mortality at 3 ppm (Spodoptera frugiperda; [1]): 0%
mortality at 1.5 ppm (Spodoptera frugiperda; Spodoptera frugiperda, 144 h, read-out: Mortality in % after 6 days): 0%

CS(=O)(=O)Oc1cccc(Cl)c1C1CC(c2csc(C3CCN(C(=O)Cn4nc(C(F)F)cc4C(F)F)CC3)n2)=NO1 (centres unmarked) [Fluoxapiprolin, fluoxapiprolin]
Mortality in % after 1 day (Phaedon cochleariae; 3 ppm): 0%
Mortality in % after 2 days (Phaedon cochleariae; 3 ppm): 0%
Mortality in % after 1 day (Phaedon cochleariae; 6 ppm): 0%

tetraniliprole
Mortality in % after 2 days (Spodoptera frugiperda; 0.06 ppm, after 2 days, caterpillars on sprayed cotton leaves): 20%
Mortality in % after 3 days (Spodoptera frugiperda; 0.06 ppm): 30%
Mortality in % after 6 days (Spodoptera frugiperda; 0.06 ppm, after 6 days): 60%
Mortality in % after 3 days (Spodoptera frugiperda; 0.12 ppm): 80%
Mortality in % after 1 day (Phaedon cochleariae; 0.12 ppm): 10%
Mortality in % after 2 days (Phaedon cochleariae; 0.12 ppm): 40%
Mortality in % after 1 day (Phaedon cochleariae; 0.24 ppm, beetle larvae on sprayed cabbage leaves): 30%
